Species on record: Rattus norvegicus
Assay: DrugMatrix - Regimen: Daily Repeat
Format: toxicity, organism-based, Sprague-Dawley
Parameters: regimen Daily Repeat, gender Male, age 6-8 weeks
Details: in vivo, po, route oral GAVAGE, vehicle 100 % WATER; for ABSOLUTE BASOPHIL / ABSOLUTE EOSINOPHIL / ABSOLUTE LYMPHOCYTE / ABSOLUTE MONOCYTE / ABSOLUTE SEGMENTED NEUTROPHIL / BASOPHIL / EOSINOPHIL / ERYTHROCYTE COUNT / HEMATOCRIT / HEMOGLOBIN / LEUKOCYTE COUNT / LYMPHOCYTE / MEAN CORPUSCULAR HEMOGLOBIN / MEAN CORPUSCULAR HEMOGLOBIN CONCENTRATION / MEAN CORPUSCULAR VOLUME / MONOCYTE / NEUTROPHIL / NUCLEATED RED BLOOD CELLS / PLATELET COUNT: tissue Blood; for ALANINE AMINOTRANSFERASE / ALBUMIN / ALKALINE PHOSPHATASE / ASPARTATE AMINOTRANSFERASE / BLOOD UREA NITROGEN / CARBON DIOXIDE / CHLORIDE / CHOLESTEROL / CREATINE PHOSPHOKINASE / CREATININE / GLUCOSE / LACTATE DEHYDROGENASE / LIPASE / PHOSPHORUS / POTASSIUM / SODIUM / TOTAL BILIRUBIN / TOTAL PROTEIN / URIC ACID: tissue Plasma
[1] = 0 mg/kg, 72 h, dose level Control, time 3 day
[2] = 0 mg/kg, 120 h, dose level Control, time 5 day
[3] = 58 mg/kg, 72 h, dose level Low, time 3 day

## NC12CC3CC(CC(C3)C1)C2 [AMANTADINE]
[1]
  ABSOLUTE BASOPHIL: 0 CELLS/uL
  ABSOLUTE EOSINOPHIL: 58.83 CELLS/uL
  ABSOLUTE LYMPHOCYTE: 11823.5 CELLS/uL
  ABSOLUTE MONOCYTE: 169 CELLS/uL
  ABSOLUTE SEGMENTED NEUTROPHIL: 815.33 CELLS/uL
  BASOPHIL: 0%
  EOSINOPHIL: 0.5%
  ERYTHROCYTE COUNT: 5.52 x10E6/uL
  HEMATOCRIT: 35.77%
  HEMOGLOBIN: 14.28 G/DL
  LEUKOCYTE COUNT: 12.87 x10E3/uL
  LYMPHOCYTE: 91.67%
  MEAN CORPUSCULAR HEMOGLOBIN: 25.92 pg
  MEAN CORPUSCULAR HEMOGLOBIN CONCENTRATION: 39.95 G/DL
  MEAN CORPUSCULAR VOLUME: 64.85 fL
  MONOCYTE: 1.33%
  NEUTROPHIL: 6.5%
  NUCLEATED RED BLOOD CELLS: 0 /100WBC
  PLATELET COUNT: 1246.17 x10E3/uL
  ALANINE AMINOTRANSFERASE: 66 u/L
  ALBUMIN: 4.25 G/DL
  ALKALINE PHOSPHATASE: 416 u/L
  ASPARTATE AMINOTRANSFERASE: 106.17 u/L
  BLOOD UREA NITROGEN: 12.67 mg/dL
  CARBON DIOXIDE: 31.83 mmol/L
  CHLORIDE: 102.5 MEQ/L
  CHOLESTEROL: 69 mg/dL
  CREATINE PHOSPHOKINASE: 601.83 u/L
  CREATININE: 0.18 mg/dL
  GLUCOSE: 154.5 mg/dL
  LACTATE DEHYDROGENASE: 301.83 u/L
  LIPASE: 11.17 u/L
  PHOSPHORUS: 12.08 mg/dL
  POTASSIUM: 6.12 MEQ/L
  SODIUM: 145.2 MEQ/L
  TOTAL BILIRUBIN: 0.17 mg/dL
  TOTAL PROTEIN: 6.1 G/DL
  URIC ACID: 1.57 mg/dL
[2]
  ABSOLUTE BASOPHIL: 0 CELLS/uL
  ABSOLUTE EOSINOPHIL: 19.33 CELLS/uL
  ABSOLUTE LYMPHOCYTE: 12577.83 CELLS/uL
  ABSOLUTE MONOCYTE: 106.33 CELLS/uL
  ABSOLUTE SEGMENTED NEUTROPHIL: 896.5 CELLS/uL
  BASOPHIL: 0%
  EOSINOPHIL: 0.17%
  ERYTHROCYTE COUNT: 5.84 x10E6/uL
  HEMATOCRIT: 36.88%
  HEMOGLOBIN: 14.48 G/DL
  LEUKOCYTE COUNT: 13.6 x10E3/uL
  LYMPHOCYTE: 92.17%
  MEAN CORPUSCULAR HEMOGLOBIN: 24.85 pg
  MEAN CORPUSCULAR HEMOGLOBIN CONCENTRATION: 39.3 G/DL
  MEAN CORPUSCULAR VOLUME: 63.23 fL
  MONOCYTE: 0.83%
  NEUTROPHIL: 6.83%
  NUCLEATED RED BLOOD CELLS: 0 /100WBC
  PLATELET COUNT: 1223.5 x10E3/uL
  ALANINE AMINOTRANSFERASE: 55.33 u/L
  ALBUMIN: 4.08 G/DL
  ALKALINE PHOSPHATASE: 355.5 u/L
  ASPARTATE AMINOTRANSFERASE: 87.67 u/L
  BLOOD UREA NITROGEN: 15.33 mg/dL
  CARBON DIOXIDE: 33.83 mmol/L
  CHLORIDE: 99.67 MEQ/L
  CHOLESTEROL: 72.17 mg/dL
  CREATINE PHOSPHOKINASE: 268.33 u/L
  CREATININE: 0.15 mg/dL
  GLUCOSE: 152.5 mg/dL
  LACTATE DEHYDROGENASE: 212.67 u/L
  LIPASE: 10.83 u/L
  PHOSPHORUS: 11.65 mg/dL
  POTASSIUM: 6.73 MEQ/L
  SODIUM: 142.43 MEQ/L
  TOTAL BILIRUBIN: 0.23 mg/dL
  TOTAL PROTEIN: 6.07 G/DL
  URIC ACID: 1.7 mg/dL
[3]
  ABSOLUTE BASOPHIL: 0 CELLS/uL
  ABSOLUTE EOSINOPHIL: 0 CELLS/uL
  ABSOLUTE LYMPHOCYTE: 14460 CELLS/uL
  ABSOLUTE MONOCYTE: 391.33 CELLS/uL
  ABSOLUTE SEGMENTED NEUTROPHIL: 1148.67 CELLS/uL
  BASOPHIL: 0%
  EOSINOPHIL: 0%
  ERYTHROCYTE COUNT: 5.53 x10E6/uL
  HEMATOCRIT: 35.03%
  HEMOGLOBIN: 14 G/DL
  LEUKOCYTE COUNT: 16 x10E3/uL
  LYMPHOCYTE: 90%
  MEAN CORPUSCULAR HEMOGLOBIN: 25.33 pg
  MEAN CORPUSCULAR HEMOGLOBIN CONCENTRATION: 40 G/DL
  MEAN CORPUSCULAR VOLUME: 63.37 fL
  MONOCYTE: 2.33%
  NEUTROPHIL: 7.67%
  NUCLEATED RED BLOOD CELLS: 0 /100WBC
  PLATELET COUNT: 1206.67 x10E3/uL
  ALANINE AMINOTRANSFERASE: 47.67 u/L
  ALBUMIN: 4.17 G/DL
  ALKALINE PHOSPHATASE: 377.33 u/L
  ASPARTATE AMINOTRANSFERASE: 90 u/L
  BLOOD UREA NITROGEN: 13.33 mg/dL
  CARBON DIOXIDE: 31.67 mmol/L
  CHLORIDE: 102.33 MEQ/L
  CHOLESTEROL: 67 mg/dL
  CREATINE PHOSPHOKINASE: 444.67 u/L
  CREATININE: 0.13 mg/dL
  GLUCOSE: 137.33 mg/dL
  LACTATE DEHYDROGENASE: 367.33 u/L
  LIPASE: 11.67 u/L
  PHOSPHORUS: 12.1 mg/dL
  POTASSIUM: 6.36 MEQ/L
  SODIUM: 145.43 MEQ/L
  TOTAL BILIRUBIN: 0.17 mg/dL
  TOTAL PROTEIN: 5.9 G/DL
  URIC ACID: 1.6 mg/dL
